Reference: US20230203126A1, “A COMPOSITION COMPRISING S-ARRESTIN PEPTIDES” (WORG PHARMACEUTICALS (HANGZHOU) CO., LTD., priority 2019, published 2023)
Values joined by “and” are separate entries in the source; they are usually repeats but may differ in a detail not shown here. Identical values can stand only once. No end group written: not given here.

Tested on: S-Ag-induced cell activation (IFNy production of LN cells and splenocytes)
Assay: Ex vivo tolerization experiment (DR3tg mice)
Type: in vivo
Conditions: for reduction of S-Ag-induced cell activation (IFNy) in spleens: dose escalation to 15 nmol per peptide s.c., cocktail vs single peptide, vs control group, two independent experiments (FIG. 7); for reduction of S-Ag-induced cell activation (IFNy) in lymph nodes / reduction of S-Ag-induced cell activation (IFNy) in spleen: single peptide escalating dose s.c., vs PBS; for reduction of S-Ag-induced cell activation (IFNy) in lymph nodes: 10 days after immunization (FIG. 5A, 6A); for reduction of S-Ag-induced cell activation (IFNy) in spleen: 10 days after immunization (FIG. 5B, 6B)
Method: (§1) FIG. 5: 17JK alone induces tolerance towards S-Ag protein in DR3tg mice. Mice were injected subcutaneously in the flank with 0,1 µg/ml, 1 µg/ml and 10 µg/ml 17JK on days -15, -13 and -11, followed by 3 injections of 100 µg/ml on days -8, -6 and -4 (escalating dose regime). On day 0, mice were immunized subcutaneously at the base of the tail with antigen/CFA. Mice were sacrificed 10 days after immunization to measure activation of LN cells and splenocytes upon S-Ag restimulation. IFNy concentration was measured in the culture supernatant as an indication of cell activation. Data represent mean ± SEM of the concentration of IFNy for the PBS-treated mice (black lines) and 17JK-treated mice (grey lines). Two-way ANOVA was used to measure overall treatment effects on T cell activation. Dunnett’s multiple comparisons test was used and significant differences are indicated in the graphs (** p<0.01; *** p<0.001). The % inhibition of IFNy production as compared to the control group is indicated in the graphs. (A) Tolerization against S-Ag in LN. IFNy production expressed as IFNy concentration (pg/ml). (B) Tolerization against S-Ag in spleen. IFNy production expressed as IFN-y concentration (pg/ml). LN, lymph nodes. Data representative of 3 independent experiments.
as §1, with “FIG. 6: 15N3K alone induces” for “FIG. 5: 17JK alone induces”, “10 µg/ml 15N3K on days” for “10 µg/ml 17JK on days”, “lines) and 15N3K-treated mice (grey” for “lines) and 17JK-treated mice (grey”, “the graphs (* p<0.05; **** p<0.0001). The %” for “the graphs (** p<0.01; *** p<0.001). The %”, “Tolerization against SAg in spleen.” for “Tolerization against S-Ag in spleen.”
FIG. 7: Treatment with peptide cocktail ATX975 reduces S-Ag-induced immune cell activation in DR3tg mice more efficiently than treatment with 17JK or 15N3K alone. Mice were injected subcutaneously in the flank with 0.015 nmol, 0.15 nmol and 1.5 nmol of peptide on days -15, -13 and -11 respectively, followed by 3 injections of 15 nmol peptide on days -8, -6 and -4 (dose escalation schedule). For treatment with the cocktail (ATX975) containing 3 peptides, these doses were given per peptide (reaching a total top dose of 45 nmol peptide). On day 0, mice were immunized subcutaneously at the base of the tail with antigen/CFA. Mice were sacrificed 10 days after immunization to measure activation of splenocytes upon SAg restimulation. Data represent mean ± SEM of the IFNy concentration for the control-treated mice (black lines) and peptide-treated mice (grey lines). Two-way ANOVA was used to measure overall treatment effects on T cell activation. Dunnett’s multiple comparisons test was used and significant differences are indicated in the graphs (* p<0.05; ** p<0.01; *** p<0.001; **** p<0.0001 as compared to the control group; ^# p<0.05, ^#### p<0.0001 as compared to the ATX975 group). The % inhibition of IFNy production as compared to the control group is indicated in the graphs. (A) Tolerization against S-Ag […]. IFN-y production expressed as IFN-y concentration (pg/ml). (B) Tolerization against S-Ag in spleen. […]

Substance | reduction of S-Ag-induced cell activation (IFNy) in spleens | reduction of S-Ag-induced cell activation (IFNy) in lymph nodes | reduction of S-Ag-induced cell activation (IFNy) in spleen
KKKLTFRRDLYFSRVQVYKKK-NH2 [17JK] | 80% and 52% | 78% | 84%
KKKVIFKKISRDKSVTIYLGKKK-NH2 [15N3K] | 74% | 61% | 72%
